Article PMC3481155, “AhR activation underlies the CYP1A autoinduction by A-998679 in rats” (Frontiers in Genetics, 2012)

How the values were obtained:
[1] = 5-day oral rat study, pharmacokinetic analysis of plasma exposure; assay type: in vivo
Protocol: All animal experiments were conducted in accordance with the Guiding Principles in the Use of Animals in Toxicology (http://www.toxicology.org/ai/air/air6.asp) and were approved by Abbott's Institutional Animal Care and Use Committee (IACUC). Male Sprague-Dawley rats [Crl:CD®(SD)IGS BR], weighing ~250 g at study initiation were obtained from Charles River Laboratories, Inc. (Wilmington, MA). Rats were housed singly in ventilated, stainless steel, wire-bottom hanging cages and fed non-certified Rodent Chow (Harlan Labs, Madison, WI), and water ad libitum and acclimated for at least 5 days after arrival. Rats were randomly assigned to various treatment groups (3 rats/group) and were dosed once daily by oral gavage with vehicle (0.2% hydroxypropylmethylcellulose at a dose volume of 10 ml/kg) or with 30, 100, or 200 mg/kg of A-998679. All rats were fasted overnight after their last dose, weighed and sacrificed under isoflurane anesthesia. For histopathological evaluation, liver, heart, kidney, spleen, bone (sternum) with marrow, gastrointestinal tract (duodenum with pancreas, jejunum, ileum, cecum, and colon), thymus, and lung were fixed in formalin, routinely processed, and embedded in paraffin. Paraffin sections (4 μm) were stained with hematoxylin and eosin. Liver and small intestine (jejunum) were also flash frozen in liquid nitrogen and stored at −80°C until processing for gene expression profiling. Serum clinical chemistry parameters were quantified using an Aeroset Clinical Chemistry Analyzer (Abbott Laboratories, Abbott Park, IL) and included alanine amino transferase (ALT), aspartate amino transferase (AST), gamma glutamyltransferase (GGT), and alkaline phosphatase (ALP) activities.
Serial blood samples were obtained from a tail vein of each rat 0.5, 1.5, 3, 6, 9, 12, and 24 h after drug administration on the first and last day of dosing. Plasma was separated by centrifugation and stored frozen prior to analysis. A-998679 was separated from the plasma using protein precipitation with acetonitrile. A-998679 and the internal standard were separated from co-extracted contaminants on a 50 × 3 mm Betasil CN column (Thermosystem) with an acetonitrile: 10 mM ammonium acetate mobile phase (35:65, by volume) at a flow rate of 0.4 ml/min at ambient temperature. Concentrations of A-998679 in the plasma extracts were determined by HPLC-MS/MS (API2000; Applied Biosystems). Peak plasma concentrations (Cmax) and the time to peak plasma concentration (Tmax) were read directly from the plasma concentration data for each rat. A-998679 plasma concentration data were submitted to multi-exponential curve fitting using WinNonlin. The area under the plasma concentration-time curve from 0 to t hours (time of the last measurable plasma concentration) after dosing (AUC0-t) was calculated using the linear trapezoidal rule for the plasma concentration-time profiles. The residual area extrapolated to infinity, determined as the final measured plasma concentration (Ct) divided by the terminal elimination rate constant (β), was added to AUC0-t to produce the total area under the curve (AUC0-∞).

rat Cyp 2C6 = molecular target: T1, rat Cyp 2C6 (Rattus norvegicus, UniProt P05178); test: Recombinant rat Cyp phenotype profiling, 2C6; assay type: in vitro ADME; settings: 60 min
T1 construct: purchased BD Gentest; host or cells: baculovirus infected insect cells
Protocol: Identification of the drug metabolizing enzymes (DMEs) of A-998679 was studied in cDNA expressed recombinant enzymes prepared from baculovirus infected insect cells over-expressing rat Cyp isoforms (BD Gentest, Woburn, MA) as listed in Table 2. Incubations were conducted in duplicate using Supersomes. The incubation mixture contained 100 pmol/ml of enzymes, except for Cyp1a1 (200 pmol/ml), 0.1 or 0.21 μM of [^3H]A-998679 in 100 mM phosphate buffer (pH 7.4). Reactions were initiated with the addition of NADPH at a final concentration of 1 mM and incubated at 37°C for 60 min. At the end of the incubation period, the incubations were terminated by the addition of acetonitrile/ethanol (50/50, v/v) solution. Insect control samples lacking expressed enzyme were used as negative control. The degree of metabolism of A-998679 was assessed by percent of parent remaining using the radio-HPLC method described below.
Radiolabeled components from the above assays were profiled following separation by HPLC with on line radioflow detector. The system consisted of an Agilent 1100 Series quaternary pump and autosampler connected to a Packard 500TR flow scintillation detector. The data were processed using the Radiomatic™ Flo-one® software v3.65. The scintillant (Perkin Elmer FLO-SCINT™ III) flow was maintained at 3 ml/min. […]

CYP2D6 = molecular target: T2, CYP2D6 (Homo sapiens, UniProt P10635); test: CYP inhibition evaluation in human liver microsomes, CYP2D6 (dextromethorphan); assay type: in vitro ADME; settings: probe substrate dextromethorphan
T2 construct: from tissue; host or cells: human liver microsomes
Protocol: Incubations were performed in human liver microsomes using probe substrate concentrations similar to their corresponding Km values. Enzyme activity was evaluated in the presence of various concentrations of A-998679. The incubations consisted of the test article at varying concentrations (0–30 μM), probe substrate (concentration ~Km, see Table A2), human liver microsomal protein and 1 mM NADPH in 50 mM phosphate buffer at pH 7.4. Relative quantitation of the metabolites was obtained by LC-MS/MS using an ABSciex (Foster City, CA) API3000 or API4000 Qtrap hybrid linear ion trap mass spectrometer equipped with a TurboIonspray source using either PerkinElmer series 200 pumps or Agilent 1100 series pump with a Leap autosampler. Analytes were separated using a Phenomenex Prodigy ODS(3) 5 μm, 50 × 2.0 mm column at 50°C, eluted and detected under the specific conditions listed in Tables A3, A4, and A5. The analyte to internal standard peak area ratios were determined using Analyst 1.4 software (Applied Biosytems, Carlsbad, CA). The peak area ratios observed in the presence of test article were compared to the vehicle control in order to determine percent activity. To determine the IC50, the data were plotted as Log [dose] μM vs. % inhibition, and analyzed with a sigmoidal dose-response (variable slope) fitting equation. […]

[2] = 30 and 100 mg/kg/day, data not shown

T1 sequence (P05178 whole entry): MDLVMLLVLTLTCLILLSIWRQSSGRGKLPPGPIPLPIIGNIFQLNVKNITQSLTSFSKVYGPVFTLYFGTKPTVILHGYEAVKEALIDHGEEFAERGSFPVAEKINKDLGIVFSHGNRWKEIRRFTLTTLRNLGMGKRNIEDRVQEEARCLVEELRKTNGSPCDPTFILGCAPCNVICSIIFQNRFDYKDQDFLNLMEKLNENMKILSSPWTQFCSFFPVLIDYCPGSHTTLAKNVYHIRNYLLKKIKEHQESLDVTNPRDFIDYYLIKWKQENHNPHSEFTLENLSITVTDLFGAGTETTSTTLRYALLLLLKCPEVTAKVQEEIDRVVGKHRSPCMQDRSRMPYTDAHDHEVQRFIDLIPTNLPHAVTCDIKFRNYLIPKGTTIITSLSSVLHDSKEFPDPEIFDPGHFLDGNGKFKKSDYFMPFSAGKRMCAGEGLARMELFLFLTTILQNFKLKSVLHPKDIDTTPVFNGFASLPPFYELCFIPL
T2 sequence (P10635 whole entry): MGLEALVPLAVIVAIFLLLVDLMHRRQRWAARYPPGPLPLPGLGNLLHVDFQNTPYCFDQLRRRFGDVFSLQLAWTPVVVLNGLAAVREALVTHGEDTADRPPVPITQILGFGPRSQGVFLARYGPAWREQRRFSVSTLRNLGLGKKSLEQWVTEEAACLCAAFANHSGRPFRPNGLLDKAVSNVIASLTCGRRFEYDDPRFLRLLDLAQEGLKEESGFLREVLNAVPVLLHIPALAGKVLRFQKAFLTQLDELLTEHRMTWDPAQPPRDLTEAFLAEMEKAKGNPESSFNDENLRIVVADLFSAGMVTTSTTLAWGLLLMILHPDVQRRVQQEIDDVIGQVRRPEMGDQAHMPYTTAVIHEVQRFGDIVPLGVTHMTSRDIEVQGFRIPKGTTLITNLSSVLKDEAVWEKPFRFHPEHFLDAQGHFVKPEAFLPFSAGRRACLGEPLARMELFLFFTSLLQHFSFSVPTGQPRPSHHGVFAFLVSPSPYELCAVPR

- decline in Cmax after 5 days of dosing compared to the first day ([1]; 30 mg/kg/day, day 5 vs day 1): 88%
- decrease in plasma AUC after 5 days of dosing ([1]; 30 mg/kg/day, day 5 vs day 1): 95%
- decline in Cmax after 5 days of dosing compared to the first day ([1]; 100 mg/kg/day, day 5 vs day 1): 53%
- decrease in plasma AUC after 5 days of dosing ([1]; 100 mg/kg/day, day 5 vs day 1): 80%
- change in AUC after 5 days of dosing ([1]; 200 mg/kg/day, day 5 vs day 1): no change
- change in Cmax after 5 days of dosing ([1]; 200 mg/kg/day, day 5 vs day 1): no change
- change in Tmax after 5 days of dosing [1, 2]: decrease
- change in t1/2 after 5 days of dosing [1, 2]: decrease
- Cmax ([1]; male, Sprague-Dawley, plasma, 30 mg/kg): ~5 µM
- % parent remaining (rat Cyp 2C6; recombinant rat Cyp 2C6, 0.10 μM): 91.0%
- % parent remaining (rat Cyp 2C6; recombinant rat Cyp 2C6, 0.21 μM): 88.8%
- IC50 (CYP2D6): > 30 µM
Structure (SMILES): N#Cc1cccc(-c2noc(-c3cccnc3)n2)c1 [A-998679, 3-(5-pyridin-3-yl-1,2,4-oxadiazol-3-yl) benzonitrile]
